As a reminder, the EC50 is the midpoint of the concentration-response curve.

The test system of this assay is HT-29 cells. The assay is described as follows: In vitro assay for protection of HT-29 cells from necroptosis (TNFα/Smac mimetic/Z-VAD-FMK induction, CCK8 readout). In kind it is cell-based. The conditions noted are these: TNFα/Smac mimetic/Z-VAD-FMK for 24 h; inhibition of necroptosis; read-out: HT-29 (EC50).
Turning to `C[C@H](NC(=O)c1cn(C)c2ccc(-c3ccn4nc(NC(=O)CN5CCOC[C@@H]5CO)nc4c3)cc12)c1ccc(F)cc1` [Compound 35], the EC50 was below 1 nM.

For the compound `CC1CN(CC(=O)Nc2nc3cc(-c4ccc5c(c4)c(C(=O)N[C@@H](C)c4ccc(F)cc4)cn5C)ccn3n2)CCO1` (stereo partly drawn) [Compound 45], the EC50 was below 1 nM.

Take `C[C@H](NC(=O)c1cn(C)c2ccc(-c3ccn4nc(NC(=O)CN5CCOCC5C(=O)O)nc4c3)cc12)c1ccc(F)cc1` (stereo partly drawn) [Compound 33]: the EC50 was in the range of 1000 to 10000 nM.

With `C[C@H](NC(=O)c1cn(C)c2ccc(-c3ccn4nc(NC(=O)Cn5cncn5)nc4c3)cc12)c1ccc(F)cc1` [Compound 57], the EC50 fell in the range of 10 to 100 nM.

Consider `C[C@H](NC(=O)c1cn(C)c2ccc(-c3ccn4nc(NC(=O)CN5CC[C@@H](O)C5)nc4c3)cc12)c1ccc(F)cc1` [Compound 12], for which the EC50 is below 1 nM.

For the compound `COCCOCCOCC(=O)Nc1nc2cc(-c3ccc4c(c3)c(C(=O)N[C@@H](C)c3ccc(F)cc3)cn4C)ccn2n1` [Compound 25], the EC50 was below 1 nM.

As to `COC(C)C(=O)Nc1nc2cc(-c3ccc4c(c3)c(-c3nncn3C(C)c3ccc(F)cc3)cn4C)ccn2n1` (stereo not drawn) [Compound 216], the EC50 lay within 10 to 100 nM.

Take `COCCOCCOCCOCC(=O)Nc1nc2cc(-c3ccc4c(c3)c(C(=O)N[C@@H](C)c3ccc(F)cc3)cn4C)ccn2n1` [Compound 26]: the EC50 is below 1 nM.

As for `C[C@H](NC(=O)c1cn(C)c2ccc(-c3ccn4nc(NC(=O)CN5CCC[C@@H](O)C5)nc4c3)cc12)c1ccc(F)cc1` [Compound 49], the EC50 lay within 1 to 10 nM.

As for `C[C@H](NC(=O)c1cn(C)c2ccc(-c3ccn4nc(NC(=O)CN5CCOC[C@@H]5C)nc4c3)cc12)c1ccc(Cl)cc1` [Compound 82], the EC50 is below 1 nM.

Take `COCC(=O)Nc1nc2cc(-c3ccc4c(c3)c(C(=O)N[C@H](c3ccc(F)cc3)C(F)F)cn4C)ccn2n1` [Compound 166]: the EC50 is below 1 nM.

In the case of `C[C@H](NC(=O)c1cn(C)c2ccc(-c3ccn4nc(NC(=O)CN5CCOC[C@H]5C)nc4c3)cc12)c1ccc(Cl)cc1` [Compound 81], the EC50 was below 1 nM.

Regarding `Cn1cc(C(=O)N[C@@H](CF)c2ccc(F)cc2)c2cc(-c3ccn4nc(NC(=O)CN5CCCCC5)nc4c3)ccc21` [Compound 96], the EC50 was below 1 nM.

Take `Cn1cc(C(=O)N[C@@H]2C[C@H]2c2ccc(F)c(F)c2)c2cc(-c3ccn4nc(NC(=O)[C@H]5CCCO5)nc4c3)ccc21` [Compound 184]: the EC50 was 100 to 1000 nM.

On to `Cn1cc(C(=O)Nc2nc3cc(-c4ccc5c(c4)c(C(=O)N[C@H]4CCCc6cc(F)ccc64)cn5C)ccn3n2)cn1` [Compound 141], for which the EC50 is 1 to 10 nM.

As to `Cn1cc(C(=O)N2CC(F)(F)CC2c2ccc(F)cc2)c2cc(-c3ccn4nc(NC(=O)C5CCOC5)nc4c3)ccc21` (stereo not drawn) [Compound 159], the EC50 is below 1 nM.

As to `Cn1cc(C(=O)N[C@@H](CF)c2ccc(F)cc2)c2cc(-c3ccn4nc(NC(=O)C5CC5(F)F)nc4c3)ccc21` (stereo partly drawn) [Compound 110], the EC50 was below 1 nM.

Regarding `C[C@H](NC(=O)c1cn(C)c2ccc(-c3ccn4nc(NC(=O)CN5CCOCC5)nc4c3)cc12)C(C)(C)C` [Compound 90], the EC50 fell in the range of 1000 to 10000 nM.

For `C[C@H](NC(=O)c1cn(C)c2ccc(-c3ccn4nc(NC(=O)CN5CC6CC5CO6)nc4c3)cc12)c1ccc(Cl)cc1` (stereo partly drawn) [Compound 79], the EC50 was below 1 nM.

For the compound `C[C@H](NC(=O)c1cn(C)c2ccc(-c3ccn4nc(NC(=O)CN5CC[C@@H](F)C5)nc4c3)cc12)c1ccc(F)cc1` [Compound 20], the EC50 is below 1 nM.

`C[C@H](NC(=O)c1cn(C)c2ccc(-c3ccn4nc(NC(=O)CN(C)C)nc4c3)cc12)c1ccc(Cl)cc1` [Compound 78]: the EC50 is below 1 nM.

For `C[C@H](NC(=O)c1cn(C)c2ccc(-c3ccn4nc(NC(=O)C5CC5F)nc4c3)cc12)C(C)(C)C` (stereo partly drawn) [Compound 92], the EC50 fell in the range of 100 to 1000 nM.

On to `CN(C)CC(=O)Nc1nc2cc(-c3ccc4c(c3)c(C(=O)N[C@H](c3ccc(F)cc3)C(F)F)cn4C)ccn2n1` [Compound 167], for which the EC50 was below 1 nM.

As to `C[C@H](NC(=O)c1cn(C)c2ccc(-c3ccn4nc(NC(=O)CN5CCSCC5)nc4c3)cc12)c1ccc(Cl)cc1` [Compound 87], the EC50 was below 1 nM.

For `Cn1cc(C(=O)N[C@H]2CCCc3cc(F)ccc32)c2cc(-c3ccn4nc(NC(=O)CC#N)nc4c3)ccc21` [Compound 142], the EC50 fell in the range of 10 to 100 nM.

`C[C@H](NC(=O)c1cn(C)c2ccc(-c3ccn4nc(NC(=O)CN5CCC(F)(F)CC5)nc4c3)cc12)c1ccc(F)cc1` [Compound 47]: the EC50 is below 1 nM.

`C[C@H](NC(=O)c1cn(C)c2ccc(-c3ccn4nc(NC(=O)CN5CCN(C(=O)C6CC6)CC5)nc4c3)cc12)c1ccc(F)cc1` [Compound 50]: the EC50 was below 1 nM.

For the compound `C[C@H](NC(=O)c1cn(C)c2ccc(-c3ccn4nc(N5CCOCC5)nc4c3)cc12)c1ccc(F)cc1` [Compound 219], the EC50 lay in the range of 1 to 10 nM.

Regarding `C[C@H](NC(=O)c1cn(C)c2ccc(-c3ccn4nc(NC(=O)C5CC5)nc4c3)cc12)C(C)(C)C` [Compound 93], the EC50 was in the range of 100 to 1000 nM.

Regarding `CC(C(=O)Nc1cn(C)c2ccc(-c3ccn4nc(NC(=O)C5CC5)nc4c3)cc12)c1ccc(F)cc1` (stereo not drawn) [Compound 177], the EC50 is 10 to 100 nM.

Turning to `C[C@H](NC(=O)c1cn(C)c2ccc(-c3ccn4nc(NC(=O)CNCC5CC5)nc4c3)cc12)c1ccc(F)cc1` [Compound 66], the EC50 was below 1 nM.

For `C[C@H](NC(=O)c1cn(C)c2ccc(-c3ccn4nc(NC(=O)N5CCOCC5)nc4c3)cc12)c1cccc(F)c1` [Compound 118], the EC50 was below 1 nM.

As to `CC(=O)N1CCN(CC(=O)Nc2nc3cc(-c4ccc5c(c4)c(C(=O)N[C@@H](C)c4ccc(F)cc4)cn5C)ccn3n2)CC1` [Compound 53], the EC50 is below 1 nM.

In the case of `CCOC(=O)Nc1nc2cc(-c3ccc4c(c3)c(C(=O)N[C@@H](C)c3ccc(F)cc3)cn4C)ccn2n1` [Compound 17], the EC50 was below 1 nM.

On to `CC(=O)Nc1nc2cc(-c3ccc4c(c3)c(C(=O)N[C@@H]3C[C@H]3c3ccc(F)c(F)c3)cn4C)ccn2n1` [Compound 125], for which the EC50 is 1000 to 10000 nM.

Regarding `CC(C)NCC(=O)Nc1nc2cc(-c3ccc4c(c3)c(C(=O)N[C@@H](C)c3ccc(F)cc3)cn4C)ccn2n1` [Compound 67], the 50% effective concentration (EC50) is below 1 nM.

On to `C[C@H](NC(=O)c1cn(C)c2ccc(-c3ccn4nc(NC(=O)Cn5ccnn5)nc4c3)cc12)c1ccc(F)cc1` [Compound 52], for which the EC50 was below 1 nM.

`COC1CCN(CC(=O)Nc2nc3cc(-c4ccc5c(c4)c(C(=O)N[C@@H](C)c4ccc(F)cc4)cn5C)ccn3n2)CC1` [Compound 24]: the EC50 was below 1 nM.

Turning to `C[C@H](NC(=O)c1cn(C)c2ccc(-c3ccn4nc(NC(=O)C5(C(=O)O)CC5)nc4c3)cc12)c1ccc(F)cc1` [Compound 31], the EC50 lay in the range of 10 to 100 nM.

Regarding `C[C@H](NC(=O)c1cn(C)c2ccc(-c3ccn4nc(NC(=O)CN5C[C@H](O)CC5=O)nc4c3)cc12)c1ccc(F)cc1` [Compound 4], the EC50 fell in the range of 10 to 100 nM.

Consider `C[C@H](NC(=O)c1nn(C)c2ccc(-c3ccn4nc(NC(=O)C5CC5)nc4c3)cc12)c1ccc(F)cc1` [Compound 192], for which the EC50 was below 1 nM.

`CN(C(=O)c1cn(C)c2ccc(-c3ccn4nc(NC(=O)C5CC5)nc4c3)cc12)[C@H]1CCc2cc(F)ccc21` [Compound 205]: the EC50 was 1 to 10 nM.

The values are drawn from patent publication EP4782448A1, “SUBSTITUTED PYRIDOTRIAZOLE COMPOUND, AND PREPARATION METHOD THEREFOR AND USE THEREOF” (Origiant Pharmaceutical Co., Ltd., priority 2023, dated 2025).
